Reference: patent US9211291B2, “Treatment regimen utilizing neratinib for breast cancer” (WYETH LLC, priority 2009, dated 2015)

Columns and labels:
[1] = test system: erbB-1- and/or erbB 2-expressing carcinoma cell lines; settings: read-out: cellular IC50, preclinical data; cited from earlier work
[2] = test system: metastatic erbB-2 positive breast cancer; assay: phase 2 trial of neratinib as a single agent in subjects with metastatic erbB-2 positive breast cancer; type: in vivo, human; settings: for median progression-free survival (PFS) / overall response rate (ORR): independent radiology assessment, preliminary data
Text: Neratinib as a single agent has been studied in a phase 2 trial in subjects with metastatic erbB-2 positive breast cancer.

[3] = Arm A: subjects with prior trastuzumab treatment
[4] = Arm B: subjects without prior exposure to trastuzumab

In the case of `CCOc1cc2ncc(C#N)c(Nc3ccc(OCc4ccccn4)c(Cl)c3)c2cc1NC(=O)/C=C/CN(C)C` [neratinib, (2E)-N-[4-[[3-chloro-4-[(pyridin-2-yl)methoxy]phenyl]amino]-3-cyano-7-ethoxyquinolin-6-yl]-4-(dimethylamino)but-2-enamide], the IC50 [1] is listed as less than 100 nM, the “median progression-free survival (PFS)” value [2, 3] is listed as 23 weeks and the “overall response rate (ORR)” value [2, 3] is listed as 26%. For the same molecule, the “median progression-free survival (PFS)” value [2, 4] was 40 weeks, the “overall response rate (ORR)” value [2, 4] was 57% and the main adverse event ([2]; generally well manageable with medication, treatment interruption, or dose modification) was “diarrhea”. The “other common adverse events” value ([2]; human, in vivo) was “nausea, vomiting, fatigue, and anorexia”.
